Assay results reported in publication PMC5658359, “A potent small-molecule inhibitor of the DCN1-UBC12 interaction that selectively blocks cullin 3 neddylation” (Nature Communications, 2017).
“Also recorded” adds a separate entry of the source.

Assays:
[1] = system: p21, Bim, CDT1; test: Western blotting of cullin 1 and 4A CRL substrates in cells; type: cell-based; conditions: western blot, 24 h
From the text: (§1) Treated cells were lysed by RIPA buffer supplemented with protease and phosphatase inhibitors. The expression level of indicated proteins was examined by immunoblotting analysis. GAPDH was used as the loading control.

[2] = target: T1, NEDD8 E1 (APP-BP1/Uba3) (Homo sapiens, UniProt Q8TBC4); test: In vitro UBC12~NEDD8 thioester forming assay; type: biochemical; conditions: DI-591 at concentrations up to 100 µM
T1 construct: purchased Boston Biochem
T1 sequence (Q8TBC4 1-463): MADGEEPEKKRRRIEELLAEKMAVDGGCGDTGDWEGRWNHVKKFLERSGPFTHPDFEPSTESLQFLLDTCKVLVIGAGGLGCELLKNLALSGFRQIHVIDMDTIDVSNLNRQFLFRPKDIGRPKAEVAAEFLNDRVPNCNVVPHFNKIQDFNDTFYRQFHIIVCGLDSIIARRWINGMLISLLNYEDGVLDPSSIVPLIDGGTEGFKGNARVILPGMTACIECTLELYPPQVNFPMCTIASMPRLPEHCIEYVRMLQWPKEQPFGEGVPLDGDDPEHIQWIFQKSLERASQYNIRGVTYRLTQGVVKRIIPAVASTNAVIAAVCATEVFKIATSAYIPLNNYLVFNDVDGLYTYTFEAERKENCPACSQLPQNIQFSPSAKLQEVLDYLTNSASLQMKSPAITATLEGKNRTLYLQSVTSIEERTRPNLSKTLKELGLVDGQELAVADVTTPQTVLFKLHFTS
T1 sequence (Q13564 1-534 partner): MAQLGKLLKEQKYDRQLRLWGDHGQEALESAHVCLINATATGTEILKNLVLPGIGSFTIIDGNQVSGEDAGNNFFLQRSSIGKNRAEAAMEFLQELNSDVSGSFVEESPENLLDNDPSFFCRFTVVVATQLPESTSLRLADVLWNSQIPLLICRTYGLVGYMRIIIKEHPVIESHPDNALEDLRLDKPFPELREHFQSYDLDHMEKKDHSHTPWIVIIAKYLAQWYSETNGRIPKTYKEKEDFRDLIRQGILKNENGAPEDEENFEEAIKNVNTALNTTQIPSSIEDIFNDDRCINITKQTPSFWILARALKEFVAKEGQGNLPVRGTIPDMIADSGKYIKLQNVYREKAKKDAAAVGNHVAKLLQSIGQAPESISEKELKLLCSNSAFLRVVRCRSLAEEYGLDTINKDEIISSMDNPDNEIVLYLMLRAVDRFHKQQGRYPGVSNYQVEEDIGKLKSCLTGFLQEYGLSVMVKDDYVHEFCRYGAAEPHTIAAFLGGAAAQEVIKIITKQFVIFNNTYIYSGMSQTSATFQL
Protocol: NEDD8, NEDD8 E1 (APP-BP1/Uba3) and UBC12 proteins were purchased from Boston Biochem. NEDD8 (10 μM), NEDD8 E1 (25 nM), and UBC12 (2 μM) were incubated in Tris-HCl (pH 7.4, 50 mM), MgCl2 (5 mM), DTT (0.5 mM) and BSA (0.1 mg/ml), with a tested compound at 25 °C for 10 min. Reactions were initiated by addition of 2 mM ATP (or distilled H2O) and ran for 5 min at 25 °C. 1 M DTT (or distilled H2O) was added to the reaction mixtures which were then kept on ice for 1 min followed by addition of SDS loading buffer (without DTT). The products were separated by SDS–PAGE, visualized by Coomassie stain and quantified by ImageLab (Bio-Rad).
1 Supplementa ry Figure 3:
3 Supplementary Figure 3. In vitro U BC12~N EDD8 thio ester forming assay.N EDD8,
4 NEDD8 E1 (APP -BP 1/Uba3) and UBC12 were purchased from Boston Biochem. 10μ M
5 NEDD8, 25nM N EDD8 E1,and 2μ M UBC12 were incubated in 50mM Tris-HCl (pH 7.4), 5mM
6 M gC l 2, 0.5mM DTT, and 0.1mg/ml BSA, with indicated compounds at 25℃ for 10min.
7 Reactions were initiated by addition o f 2mM ATP (or dH2O) and w ere run for 5min at 25℃ .
8 Reaction mixtures were t hen added with 1M DTT (or dH 2O) and kept on ice for 1min followed
9 by addition of SDS Loading buffer (without DTT). The products were s eparated b y SDS-PAGE,
10 visualized by Coomassie stain and quantified using an ImageLab imager ( Bio-Rad). […]

[3] = system: neddylation of cullin 3; test: Western blotting of neddylated and un-neddylated cullin 3 in cells; type: cell-based; conditions: THLE2 liver cells, up to 24 h, MLN4924 0.3 µM
From the text: as §1

[4] = system: THLE2 cells and five additional cancer cell lines; test: Cell viability, WST assay, panel of 6 cell lines; type: cell-based; conditions: Homo sapiens, THLE-2; 6 different cell lines; read-out: IC50, inhibition of cell viability
[5] = system: neddylation of cullin 1 and other cullins; test: Western blotting of neddylated and un-neddylated cullin 1 and other cullins in cells; type: cell-based
From the text: as §1

[6] = system: THLE2; test: Cell viability, WST assay, THLE2; type: cell-based; conditions: Homo sapiens, THLE-2, 96 h; THLE2, t = 4 d
Protocol: (§2) Supplementary Figure 8: 1
(§3) […] in a panel of 6 cell lines. (a) The indicated cell lines were treated with MLN4924, 4
(§4) Cell viability was determined with a WST assay. (b) The 5
(§5) was determined with a WST assay. 7

[7] = system: KYSE70; test: Cell viability, WST assay, KYSE70; type: cell-based; conditions: Homo sapiens, KYSE-70, 96 h; KYSE70, t = 4 d
Protocol: as §2, §3, §4, §5

[8] = system: KYSE140; test: Cell viability, WST assay, KYSE140; type: cell-based; conditions: Homo sapiens, KYSE-140, 96 h; KYSE140, t = 4 d
Protocol: as §2, §3, §4, §5

[9] = system: NRF2; test: Western blotting of NRF2 protein in cells; type: cell-based; conditions: western blot, 24 h
From the text: as §1

[10] = target: T2, DCN5 (Homo sapiens, UniProt Q9BTE7); test: Biochemical assays, binding of 47 to recombinant DCN5 (method not specified); conditions: concentrations up to 10 µM
T2 construct: DCN2 (residues 62–259), DCN3 (residues 86–304), DCN4 (residues 102–292) and DCN5 (residues 47–237); His6-TEV (N, cleaved yes); made in house; host or cells: Rosetta2 cells (E. coli)
T2 sequence (Q9BTE7 47-237): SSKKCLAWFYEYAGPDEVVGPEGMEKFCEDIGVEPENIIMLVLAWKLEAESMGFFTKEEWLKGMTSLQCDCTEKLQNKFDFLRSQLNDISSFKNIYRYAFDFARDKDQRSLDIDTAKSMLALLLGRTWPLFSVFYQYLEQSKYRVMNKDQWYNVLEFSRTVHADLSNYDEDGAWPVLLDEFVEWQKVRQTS

[11] = target: T3, DCN4 (Homo sapiens, UniProt Q92564); test: Biochemical assays, binding of 47 to recombinant DCN4 (method not specified); conditions: concentrations up to 10 µM
T3 construct: DCN2 (residues 62–259), DCN3 (residues 86–304), DCN4 (residues 102–292) and DCN5 (residues 47–237); His6-TEV (N, cleaved yes); made in house; host or cells: Rosetta2 cells (E. coli)
T3 sequence (Q92564 102-292): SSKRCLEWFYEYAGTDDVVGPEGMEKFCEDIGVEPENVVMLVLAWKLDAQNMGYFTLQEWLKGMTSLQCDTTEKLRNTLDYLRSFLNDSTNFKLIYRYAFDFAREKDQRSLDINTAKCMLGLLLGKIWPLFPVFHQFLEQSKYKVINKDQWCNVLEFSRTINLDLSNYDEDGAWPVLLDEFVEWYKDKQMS

[12] = target: T4, DCN3 (Homo sapiens, UniProt Q8IWE4); test: Biochemical assays, binding of 47 to recombinant DCN3 (method not specified); conditions: concentrations up to 10 µM
T4 construct: DCN2 (residues 62–259), DCN3 (residues 86–304), DCN4 (residues 102–292) and DCN5 (residues 47–237); His6-TEV (N, cleaved yes); made in house; host or cells: Rosetta2 cells (E. coli)
T4 sequence (Q8IWE4 86-304): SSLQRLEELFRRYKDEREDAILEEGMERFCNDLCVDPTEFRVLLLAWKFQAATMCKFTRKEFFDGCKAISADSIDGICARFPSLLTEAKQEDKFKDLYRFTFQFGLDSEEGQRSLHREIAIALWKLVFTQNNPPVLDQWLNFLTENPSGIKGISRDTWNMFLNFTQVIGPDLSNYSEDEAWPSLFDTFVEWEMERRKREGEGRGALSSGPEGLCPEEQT

[13] = target: DCN1 (Homo sapiens, UniProt Q96GG9); test: Biotinylated protein pull-down assay, KYSE140 cell lysates; type: binding; set-up: endogenous in cells; host or cells: KYSE70; KYSE140
Sequence of DCN1 (Q96GG9 whole entry): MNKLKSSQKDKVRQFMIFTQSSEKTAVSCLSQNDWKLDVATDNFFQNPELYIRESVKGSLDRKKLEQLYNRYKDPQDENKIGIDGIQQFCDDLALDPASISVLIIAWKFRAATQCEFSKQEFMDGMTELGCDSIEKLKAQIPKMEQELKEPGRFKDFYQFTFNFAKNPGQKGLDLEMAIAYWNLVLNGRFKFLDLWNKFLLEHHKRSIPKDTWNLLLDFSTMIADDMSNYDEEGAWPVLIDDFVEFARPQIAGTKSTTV
Protocol: (§6) Complexes formed between the biotinylated DI inhibitor and its targeted proteins were recovered by incubation with Streptavidin-agarose beads (Thermo Scientific Pierce, Waltham, Massachusetts). DCN1 and DCN2 proteins associated with beads were eluted by heating and detected by immunoblotting.
GAPDH was used as a loading control. […]

[14] = system: cellular DCN1 and DCN2 proteins; test: Biotinylated protein pull-down assay, KYSE70 cell lysates; type: binding
Protocol: as §6

[15] = target: T5, DCN2 (Homo sapiens, UniProt Q6PH85); test: Competitive FP binding assay with probe 46, DCN2
T5 construct: DCN2 (residues 62–259), DCN3 (residues 86–304), DCN4 (residues 102–292) and DCN5 (residues 47–237); His6-TEV (N, cleaved yes); made in house; host or cells: Rosetta2 cells (E. coli)
T5 sequence (Q6PH85 62-259): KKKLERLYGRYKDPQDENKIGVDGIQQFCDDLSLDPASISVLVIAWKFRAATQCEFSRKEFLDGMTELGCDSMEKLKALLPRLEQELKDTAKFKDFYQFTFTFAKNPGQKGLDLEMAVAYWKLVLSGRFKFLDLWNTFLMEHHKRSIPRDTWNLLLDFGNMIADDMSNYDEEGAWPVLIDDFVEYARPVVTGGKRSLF
Protocol: The FP competitive binding experiments were performed to determine the binding affinities of all synthesized DCN1 inhibitors. […] Serial dilutions of DCN1 or DCN2 protein were mixed with the probe (46) to a final volume of 200 μl in the assay buffer (100 mM phosphate buffer, pH = 6.5, with 0.02% Tween-20 and 2% DMSO). The final probe concentration was 5 nM in both DCN1 and DCN2 assays. Plates were incubated at room temperature for 30 min with gentle shaking for equilibrium.
The IC50 and Ki values of compounds were determined in competitive binding experiments. Mixtures of compounds in DMSO (4 μl) and of pre-incubated protein/probe complex solution (196 μl) in the assay buffer were added into assay plates that were incubated at room temperature for 30 min with gentle shaking. Final concentrations of DCN1 protein and fluorescent probe (46) were 50 and 5 nM, respectively. […] FP values were measured as described above. IC50 values were determined by nonlinear regression fitting of the competition curves using the dose response inhibition equation (four parameters, variable slopes) included in the Prism/GraphPad software. K i values were calculated using the methods described earlier.

Compound	protein levels of p21, Bim and CDT1 (in words) [1]	inhibition of UBC12 neddylation (E1 activity), in words [2]	effect on neddylation of cullin 3, time course (in words) [3]	IC50 [4] [nM]	effect on neddylation of cullin 1, time course (in words) ([5]; THLE2 liver cells, up to 24 h, DI-591 10 µM, MLN4924 0.3 µM)	concentrations that effectively suppress neddylation of all cullins examined ([5]; all cullins examined, panel of six cell lines, 24 h) [nM]	EC50 [6] [nM]	EC50 [7] [nM]	EC50 [8] [nM]	NRF2 protein level (in words) [9]	binding to recombinant DCN5 (in words) [10]	binding to recombinant DCN4 (in words) [11]	binding to recombinant DCN3 (in words) [12]	pull-down of DCN1 protein (in words) [13]	pull-down of cellular DCN1 and DCN2 proteins (in words) [14]	Ki [15] [nM]
NS(=O)(=O)OC[C@@H]1C[C@@H](n2ccc3c(N[C@H]4CCc5ccccc54)ncnc32)C[C@@H]1O [MLN4924]	induces accumulation	effectively inhibits	effective	50 to 350	effective	10 to 300	53.4	356	65.4	induces accumulation; also recorded: much stronger upregulation						
CCC(=O)NC(Cc1nc2ccc(C(C)C)cc2s1)C(=O)NC(CNC(=O)C1CCN(CCOCCOCCOCCNC(=O)CCCCC2SCC3NC(=O)NC32)CC1)C1CCCCC1 (stereo not shown) [compound 47]											no appreciable binding	no appreciable binding	no appreciable binding	pulls down DCN1 protein	efficiently pulls down	3.9
